Where a name gives a salt, the structure may show the parent alone.
molecular target: T1, mouse glycolate oxidase (mGO) (Mus musculus, UniProt Q9WU19); test: In vitro inhibition of mouse glycolate oxidase (mGO), HRP-coupled Trinder reaction; type: biochemical; conditions: compound tested at 100 μM; 40 mM glycolic acid as substrate; activity calculated at 1 minute
T1 construct: His6 (N); made in house; host or cells: E. coli BL21 (DE3)
T1 sequence (Q9WU19 1-370): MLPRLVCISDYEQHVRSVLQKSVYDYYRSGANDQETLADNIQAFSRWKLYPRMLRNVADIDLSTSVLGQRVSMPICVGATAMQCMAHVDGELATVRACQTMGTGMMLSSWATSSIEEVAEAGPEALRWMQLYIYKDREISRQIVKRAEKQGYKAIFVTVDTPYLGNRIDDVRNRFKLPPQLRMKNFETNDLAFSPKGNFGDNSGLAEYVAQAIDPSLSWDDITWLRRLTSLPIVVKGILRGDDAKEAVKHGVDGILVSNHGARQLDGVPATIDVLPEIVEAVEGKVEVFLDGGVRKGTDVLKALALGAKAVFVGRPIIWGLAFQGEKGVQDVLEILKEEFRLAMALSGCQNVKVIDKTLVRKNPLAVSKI
Protocol: Protein expression. BL21 (DE3) E. coli transformed with recombinant pET-15b expression vector containing mouse Hao1 cDNA with an N-terminal His6 tag was grown in LB medium in the presence of 0.1 mg/mL ampicillin. For purification of recombinant mGO expressed in BL21 E. coli, bacteria pellets were thawed and re-suspended in 2 mL lysis buffer (50 mM NaH2PO4, 300 mM NaCl, 10 mM imidazole, 50 μM flavin mononucleotide (FMN), pH 7.5), and then treated for 30 minutes with 1 mM phenylmethylsulfonyl fluoride (PMSF) for protease inhibition, 0.1% Triton X-100 and 0.2 mg/mL lysozyme to break cellular membranes. After sonication, cells were centrifuged and the supernatant containing the total cellular extract (pre-column fraction) was loaded into a Ni-NTA agarose column, and incubated for 30 minutes at 4° C. to allow binding. The column was washed with two bed volumes of lysis buffer with 20 mM imidazole to eliminate unbound proteins (wash fraction). mGO was eluted using the same buffer containing 300 mM imidazole. Fractions containing purified GO were dialyzed against 300 mL of dialysis buffer (50 mM NaH2PO4, 300 mM NaCl, pH 7.5) at 4° C. with agitation overnight, and then kept at 4° C. in darkness. Protein was quantified by the bicinchoninic acid (BCA) assay.
Inhibition assays. Enzymatic activity of mGO was determined in the presence of glycolate as substrate (40 mM glycolic acid) and phosphate buffer (50 mM KPO4, 0.1 mM EDTA, pH 7). The production of glyoxylate was indirectly measured by the quantification of hydrogen peroxide formed during the first oxidation reaction. This hydrogen peroxide reacted with 4.9 mM 4-aminoantipyrine and 0.1 mM sulphonated […] in a coupled horseradish peroxidase (HRP) reaction that yields a quinoneimine dye (FIG. 1) measured at 515 nm (Trinder reaction). Enzymatic activity was calculated at 1 minute after initiation of the Trinder reaction.

Compound | inhibition at 100 µM [%]
Cc1[nH]nc(C(=O)O)c1Nc1ccc(Cc2ccc(OCCC3CCN(C(=O)OC(C)(C)C)CC3)cc2)cc1 [Compound 61, 4-((4-(4-(2-(1-(tert-butoxycarbonyl)piperidin-4-yl)ethoxy)benzyl)phenyl)amino)-5-methyl-1H-pyrazole-3-carboxylic Acid] | > 60
Cc1[nH]nc(C(=O)O)c1Cc1ccc(Oc2ccccc2)cc1 [Compound 10, 5-Methyl-4-(4-phenoxybenzyl)-1H-pyrazole-3-carboxylic Acid] | 30 to 60
O=C(O)c1nnsc1Nc1ccc(-n2cccn2)cc1 [Compound 20, 5-((4-(1H-Pyrazol-1-yl)phenyl)amino)-1,2,3-thiadiazole-4-carboxylic Acid] | > 60
Cc1onc(C(=O)O)c1Nc1ccc(CCc2ccc(F)cc2)cc1 [Compound 56, 4-((4-(4-fluorophenethyl)phenyl)amino)-5-methylisoxazole-3-carboxylic Acid] | 30 to 60
CC(C)(C)OC(=O)N1CCN(CCOc2ccc(Cc3ccc(Nc4ccnnc4C(=O)O)cc3)cc2)CC1 [Compound 72 Na salt, 4-((4-(4-(2-(4-(tert-Butoxycarbonyl)piperazin-1-yl)ethoxy)-benzyl)phenyl)amino)pyridazine-3-carboxylic Acid Sodium Salt] | > 60
CCCC/C=C(/SC1=C(C(=O)O)NNC=C1)c1ccc(F)cc1 [Compound 78, (E)-4-((1-(4-Fluorophenyl)hex-1-en-1-yl)thio)-1,2-dihydropyridazine-3-carboxylic Acid] | < 30
O=C(O)c1nnccc1NCc1ccc(F)cc1 [Compound 50, sodium salt, 4-((4-Fluorobenzyl)amino)pyridazine-3-carboxylic Acid, sodium Salt] | < 30
Cc1onc(C(=O)O)c1Cc1ccc(-c2ccc(C#N)cc2)cc1 [Compound 1, 4-((4′-Cyano-[1, 1′-biphenyl]-4-yl)methyl)-5-methylisoxazole-3-carboxylic Acid] | 30 to 60
CC(C)(C)OC(=O)N1CCC(CCOc2ccc(Cc3ccc(Nc4ccnnc4C(=O)O)cc3)cc2)CC1 [Compound 70, 4-((4-(4-(2-(1-(tert-Butoxycarbonyl)piperidin-4-yl)ethoxy)benzyl)phenyl)amino)pyridazine-3-carboxylic Acid] | > 60
Cc1onc(C(=O)O)c1Nc1ccc(Oc2ccc(C#N)cc2)cc1 [Compound 53, 4-((4-(4-cyanophenoxy)phenyl)amino)-5-methylisoxazole-3-carboxylic Acid] | 30 to 60
Cc1onc(C(=O)O)c1N(Cc1ccc(Oc2ccc(C#N)cc2)cc1)Cc1ccc(Oc2ccc(C#N)cc2)cc1 [Compound 32, 4-(bis(4-(4-Cyanophenoxy)benzyl)amino)-5-methylisoxazole-3-carboxylic Acid] | > 60
CCCCCC(Sc1ccnnc1C(=O)O)c1ccc(F)cc1 (centres unmarked) [Compound 77, 4-((1-(4-Fluorophenyl)hexyl)thio)pyridazine-3-carboxylic Acid] | 30 to 60
Cc1onc(C(=O)O)c1Cc1ccc(Oc2ccccc2)cc1 [Compound 6, 5-Methyl-4-(4-phenoxybenzyl) isoxazole-3-carboxylic Acid] | 30 to 60
O=C(O)c1nnsc1Nc1cccc(-c2ccccn2)c1 [Compound 52, 5-((3-(pyridin-2-yl)phenyl)amino)-1,2,3-thiadiazole-4-carboxylic Acid Na Salt] | > 60
Cc1[nH]nc(C(=O)O)c1Nc1ccc(Cc2ccc(OCCCCN3CCOCC3)cc2)cc1 [Compound 65, 5-methyl-4-((4-(4-(4-morpholinobutoxy)benzyl)phenyl)amino)-1H-pyrazole-3-carboxylic Acid] | < 0
Cc1n[nH]c(C(=O)O)c1NCc1ccc(F)cc1 [Compound 43, 4-((4-Fluorobenzyl)amino)-3-methyl-1H-pyrazole-5-carboxylic Acid] | 30 to 60
CCCCCC(Sc1c(C(=O)O)noc1C)c1ccc(F)cc1 (centres unmarked) [Compound 75, 4-((1-(4-fluorophenyl)hexyl)thio)-5-methylisoxazole-3-carboxylic Acid] | 30 to 60
O=C(O)c1nnsc1Cc1ccc(Oc2ccccc2)cc1 [Compound 18, 5-(4-Phenoxybenzyl)-1,2,3-thiadiazole-4-carboxylic Acid] | 30 to 60
COc1ccc(CNc2ccnnc2C(=O)O)c(OC)c1 [Compound 49, 4-((2,4-Dimethoxybenzyl)amino)pyridazine-3-carboxylic Acid Na Salt] | 30 to 60
COc1ccc(CN(c2ccc(CCc3ccc(F)cc3)cc2)c2c(C(=O)O)n[nH]c2C)cc1 [Compound 67, 4-((4-(4-Fluorophenethyl)phenyl)(4-methoxybenzyl)amino)-3-methyl-1H-pyrazole-5-carboxylic Acid] | > 60
Cc1snc(C(=O)O)c1Nc1ccc(-c2ccc(C#N)cc2)cc1 [Compound 33, 4-((4′-Cyano-[1,1′-biphenyl]-4-yl)amino)-5-methylisothiazole-3-carboxylic Acid] | > 60
Cc1[nH]nc(C(=O)O)c1Nc1ccc(Cc2ccc(OCCOC3CN(C(=O)OC(C)(C)C)C3)cc2)cc1 [Compound 59, 4-((4-(4-(2-((1-(tert-butoxycarbonyl)azetidin-3-yl)oxy)ethoxy)benzyl)phenyl)amino)-5-methyl-1H-pyrazole-3-carboxylic Acid] | < 30

Other lines, results leading:

inhibition at 100 µM [%] | Compound
30 to 60 | Cc1[nH]nc(C(=O)O)c1Nc1cccc(-c2ccc(C#N)cc2)c1 [Compound 42, 4-((4′-Cyano-[1,1′-biphenyl]-3-yl)amino)-5-methyl-1H-pyrazole-3-carboxylic Acid]
> 60 | O=C(O)c1nnsc1Nc1ccc(Br)cc1 [Compound 24, 5-((4-Bromophenyl)amino)-1,2,3-thiadiazole-4-carboxylic Acid]
< 30 | Cc1onc(C(=O)O)c1Cc1ccc(Br)cc1 [Compound 2, 4-(4-Bromobenzyl)-5-methylisoxazole-3-carboxylic Acid]
< 30 | Cc1[nH]nc(C(=O)O)c1Nc1ccc(Br)cc1 [Compound 40, 4-((4-Bromophenyl)amino)-5-methyl-1H-pyrazole-3-carboxylic Acid]
30 to 60 | Cc1[nH]nc(C(=O)O)c1Nc1ccc(-c2ccc(C#N)cc2)cc1 [Compound 39, 4-((4′-Cyano-[1,1′-biphenyl]-4-yl)amino)-5-methyl-H-pyrazole-3-carboxylic Acid]
< 30 | Cc1[nH]nc(C(=O)O)c1Nc1ccc(Cc2ccc(OCCOC3CNC3)cc2)cc1 [Compound 60, 4-((4-(4-(2-(azetidin-3-yloxy)ethoxy)benzyl)phenyl)amino)-5-methyl-1H-pyrazole-3-carboxylic Acid hydrochloride]
30 to 60 | Cc1snc(C(=O)O)c1Nc1ccc(Br)cc1 [Compound 34, 4-((4-Bromophenyl)amino)-5-methylisothiazole-3-carboxylic Acid]
30 to 60 | Cc1snc(C(=O)O)c1Nc1cccc(Br)c1 [Compound 35, 4-((3-Bromophenyl)amino)-5-methylisothiazole-3-carboxylic Acid]
30 to 60 | Cc1[nH]nc(C(=O)O)c1Nc1ccc(C#N)cc1 [Compound 45, 4-((4-Cyanophenyl)amino)-5-methyl-1H-pyrazole-3-carboxylic Acid]
< 30 | Cc1[nH]nc(C(=O)O)c1Nc1ccc(Cc2ccc(OCCC3CCNCC3)cc2)cc1 [Compound 62, 5-methyl-4-((4-(4-(2-(piperidin-4-yl)ethoxy)benzyl)phenyl)amino)-1H-pyrazole-3-carboxylic Acid hydrochloride]
< 30 | Cc1[nH]nc(C(=O)O)c1Nc1ccc(CCc2ccc(F)cc2)cc1 [Compound 66, 4-((4-(4-Fluorophenethyl)phenyl)amino)-3-methyl-1H-pyrazole-5-carboxylic Acid]
30 to 60 | Cc1onc(C(=O)O)c1NCc1ccc(F)cc1 [Compound 29, 4-((4-Fluorobenzyl)amino)-5-methylisoxazole-3-carboxylic Acid]
< 30 | Cc1onc(C(=O)O)c1Nc1ccc(Cc2ccc(F)cc2)cc1 [Compound 54, 4-((4-(4-fluorobenzyl)phenyl)amino)-5-methylisoxazole-3-carboxylic Acid]

From patent publication US20210171503A1, “GLYCOLATE OXIDASE INHIBITORS AND USE THEREOF” (ORFAN BIOTECH INC., priority 2017, published 2021)
